# Measured values: a melting point compilation (Tetko et al.; mined from patent text by program, amines drawn as free bases though some values may be those of a salt)
row,Compound,melting point [°C]
1,Cc1ccc(S(=O)(=O)N2CCN(C(=O)c3ccc(Nc4ccnc5cc(C(F)(F)F)ccc45)cc3)CC2)cc1,215 to 217
2,CN1CCN(c2ccc(S(=O)(=O)Oc3ccccc3)c(Cl)c2[N+](=O)[O-])CC1,94 to 95
3,CC(C)N(NC(=O)OC(C)(C)C)C(=O)NCC(F)(F)F,90 to 94
4,BrCCCc1ncnn1C(c1ccccc1)(c1ccccc1)c1ccccc1,146 to 149
5,O=C(NCCCCC(NC(=O)OCC1c2ccccc2-c2ccccc21)C(=O)Oc1c(F)c(F)c(F)c(F)c1F)OCC1c2ccccc2Oc2ccccc21 (configuration not stated),150 to 152
6,N#Cc1ccc(N2C(=O)C=C(O)C2Cc2ccccc2)cc1Cl (configuration not stated),188 to 189
7,O=c1ccc(-c2ccc(OC3CCN(C4CCCC4)CC3)cc2)n[nH]1,211 to 213
8,CCOC(=O)c1c(C(F)(F)F)nc(C(F)(F)Cl)c(C(=O)OC)c1OCC,37.5 to 39.5
9,Brc1ccccc1-c1nnnn1C(c1ccccc1)(c1ccccc1)c1ccccc1,160 to 162
10,CC1OC(n2cc(F)c(NC(=O)OC3CCCCC3)nc2=O)C(O)C1O (configuration not stated),134 to 136
11,CC(C)(C)OC(=O)N[C@H]1C=C[C@@H](CO)C1,68 to 70
12,CCCCCCCC[C@H](O)[C@H](O)[C@H]1CCC(=O)O1,117 to 119
13,COc1cc(C2=C(c3cn(CCCNC(=O)C(N)CC(C)C)c4ccccc34)C(=O)NC2=O)cc(OC)c1OC (configuration not stated),172 to 173
14,CC1Cc2c(C#N)cccc2C1=O (configuration not stated),101 to 102
15,NS(=O)(=O)c1cccc(-c2noc(-c3cnn4c(C(F)(F)F)cc(-c5ccc(C(F)(F)F)cc5)nc34)n2)c1,262
16,COc1ccc(C2CCN(CCC3CCCCc4ccccc43)CC2)cc1OC (configuration not stated),127 to 128
17,Cc1c(NC(=O)c2ccc(-c3ccc(F)cc3F)cc2)ccc2cc(CN3CCCC3)cnc12,177 to 179
18,C[C@H](C1CCCCC1)N1C(=O)c2c(F)c(F)c(F)c(F)c2C1=O,147 to 148
19,CC1(C)CC(O)CC(C)(C)N1OC(=NC1CCCCC1)NC1CCCCC1,157 to 161
20,O=[N+]([O-])c1ccc(CSC(=S)N2Cc3[nH]c4ccccc4c3CC2CO)cc1 (configuration not stated),193 to 194
21,COc1ccc(C(=O)Nc2ccccc2)cc1NS(=O)(=O)c1cccc2c(N(C)C)cccc12,231 to 232
22,O=[N+]([O-])c1cc(Cl)c(CO)c(Cl)c1,111 to 114
23,CCOC(=O)CN1C(=O)c2cccc3c(Sc4ccccc4)ccc(c23)C1=O,132 to 134
24,CCCCCCCCC1C=CC(/C=C/c2ccc(C(=O)O)o2)=C2N=C3CCCCC3=C21 (configuration not stated),128 to 131
25,O=C=Nc1c(Cl)cc(Cl)cc1Cl,65 to 66
26,CCC1Cc2ccc(NC(=N)c3cccs3)cc2CN1C (configuration not stated),125 to 126

row,Compound,melting point [°C]
1,Cn1c(COc2ccc(CC3SC(=O)NC3=O)cc2)nc2cccnc21 (configuration not stated),223 to 225
2,Cc1ccc(C(=O)N2CCC(CN3CCc4oc5ccccc5c4C3)CC2)cc1,140
3,COc1c(C)cc(C)c(C2CC(=O)C=C(O)C2)c1C (configuration not stated),165 to 166
4,CCNC(=O)Nc1cccc(Oc2nnc([C@@H](C)NS(=O)(=O)c3ccc(Cl)c(Cl)c3)n2CC)c1,118 to 120
5,O=C(CCl)c1ccc2c(C(=O)CCl)ccc3c2c1CC3,184 to 187
6,O=C(Nc1cccc(C(F)(F)F)c1)c1coc2cc(Oc3cc(CO)ncn3)ccc12,181 to 182
7,O=C(Nc1cccc2cc(COc3ccccc3)cnc12)c1c(Cl)cccc1Cl,157
8,O=C(O)CC1CCC(N2CCN(c3ccncc3)CC2)CC1 (configuration not stated),225 to 227
9,Cc1sc2c(Br)c3ccccc3c(-c3cc(Br)c(O)c([N+](=O)[O-])c3)c2c1C,129 to 130
10,O=c1cc(C(F)(F)C(F)(F)F)nc[nH]1,122 to 126
11,COC(=O)CSc1cc(=O)n(C)c(=O)n1C,96 to 97.5
12,CN(C)Cc1nc(C#N)nn1-c1ccc(Cl)cc1C(=O)c1ccccc1Cl,117 to 119
13,CC(O)=C(C#N)C(=O)Nc1ccc(Cl)cc1,209 to 211
14,CCOC(=O)c1c2ccc(CC(=O)NOCC(N)=O)ccc-2c(C(=O)OCC)c1N,208 to 210
15,CN1C2CC(OC(=O)Cc3ccccc3)CC1C(O)C2O (configuration not stated),120 to 122
16,COC(=O)c1ccc(COc2cc(F)cc(C3(OC)CCOCC3)c2)cc1,88 to 89
17,CC(C)(C)OC(=O)NC(C(=O)NOC(c1ccccc1)(c1ccccc1)c1ccccc1)C1(O)CCSC1 (configuration not stated),220 to 225
18,O=S(=O)(Nc1cccnc1Cl)C(F)(F)F,120 to 122
19,CCO[C@@H]1[C@@H](OC)[C@H](C)O[C@@H](OC(=O)N(C(C)=O)c2ccc(-c3ncn(-c4ccc(OC(F)(F)C(F)(F)F)cc4)n3)cc2)[C@@H]1OC,70 to 72
20,COC(=O)c1cc(OC)c(OCc2ccccc2)c(C23CC4CC(CC(C4)C2)C3)c1,229
21,CNn1c(C)nn(C(=O)NC(C)(C)CCl)c1=O,93
22,CC(C)NC1=NS(=O)(=O)c2cc(Cl)cc([N+](=O)[O-])c2N1,266 to 267
23,CCOC(=O)[C@H]1[C@@H]2CC(=O)[C@@](N=[N+]=[N-])(C(=O)OCc3ccccc3)[C@@H]21,46 to 48
24,O=C1NN(C(=O)Oc2ccc(Cl)cc2)C(c2ccccc2)C1c1ccccc1 (configuration not stated),175 to 177
25,O=C1c2ccccc2C2(O)Oc3c(ccc4ccccc34)C12O (configuration not stated),216 to 218
26,CCCCN(Cc1c(O)ccc2ccccc12)Cc1c(O)ccc2ccccc12,130 to 131

# The next lines start with the values.
row,melting point [°C],Compound
1,152 to 154,Cc1cc(-n2cnnc2)ccc1N
2,90,CCOCc1nc2c(N)nc3ccc(OCc4ccccc4)cc3c2n1CC(C)(C)NS(C)(=O)=O
3,92 to 100,CCc1cc(C2(c3ccc(F)c(-c4cnccc4F)c3)N=C(N)N(C)C2=O)cc(CC)n1 (configuration not stated)
4,166 to 168,CCC(=O)N(c1ccncc1)c1c[nH]c2ccccc12
5,83.5 to 85.5,CC(=O)N(C)c1ccc(CO)cc1
6,232 to 233,COc1nc(C)cnc1NS(=O)(=O)c1cnccc1-c1ccc(CC(C)C)cc1
7,150 to 152,CC(CC(=O)O)NC(=O)c1ccccc1 (configuration not stated)
8,115 to 126,N#Cc1ccc2c(c1)c(C1CCC(=O)CC1)cn2Cc1ccccc1
9,114 to 115,Fc1ccc(-c2ncn(CCN3CCOCC3)c2-c2ccncc2)cc1
10,100,CCOC(=O)NC1CCN(Cc2ccccc2)CC1
11,77 to 78,C=CCN(c1ccc(Cl)cc1[N+](=O)[O-])S(=O)(=O)c1ccc(C)cc1
12,128 to 129,CN1CCC(Nc2ccccc2C(=O)c2ccccc2Cl)CC1
13,202 to 204,CC1(CO)Cc2nnc(-c3ccc(-c4ccc(F)cc4)cc3C(F)(F)F)n2CCS1 (configuration not stated)
14,150 to 152,CC(O)c1cc(S(N)(=O)=O)ccc1F (configuration not stated)
15,145 to 148,Cc1ccc2c(c1)/C(=N\NC(N)=O)C(=O)N2CCCN(C(C)C)C(C)C
16,180,Fc1cccc2sc(S)nc12
17,261 to 263,CC1=C(C#N)S(=O)(=O)c2ccc(F)cc2N1
18,163 to 164,CC(=O)Nc1c(C#N)cnn1-c1c(Cl)cc(Cl)cc1Cl
19,147,Cc1cc(N2CCC(N3CCCC3C)C2)ccc1C(=O)NC1CCOCC1 (configuration not stated)
20,> 300,Nc1scc2c(C(=O)O)nn(-c3ccc(Br)cc3)c(=O)c12
21,> 250,O=C(Nc1nc(=O)[nH]s1)c1ccc2ccccc2c1
22,214 to 217,O=[N+]([O-])c1cc(I)ccc1Nc1cccc(-c2cncnc2)c1
23,123,Cc1cc(Cl)c2c(C#N)cn(-c3ccc(C(C)C)cc3Br)c2n1
24,123 to 124,O=C1N(c2ccccc2)CCN1C1CCNCC1
25,170 to 171,COC(=O)CC1=C(C)C(=Cc2ccc(S(N)(=O)=O)cc2)c2ccc(OC)cc21

row,melting point [°C],Compound
1,188 to 190,Cc1cc(Br)cnc1CCCCNC1=NS(=O)N=C1N (configuration not stated)
2,190 to 191,Cc1oc(-c2ccccc2)nc1COc1ccc(C(=O)O)cc1
3,239 to 241,O=C1NCCN1c1ccc(S(=O)(=O)Nc2ccc3[nH]ccc3c2)cc1
4,211 to 213,NC(=O)c1nn(-c2ccc(S(N)(=O)=O)cc2)c2c1CSc1ccccc1-2
5,83 to 85,Cc1ccc(-n2nc(C(N)=O)nc2-c2ccccc2)cc1COCCC(C)C
6,100 to 102,COc1ccc2c(c1)Sc1ccc(Cl)cc1C(O)C2 (configuration not stated)
7,74 to 75,Nc1ccc(/C=C/c2c(F)cccc2F)cc1
8,61 to 65,COC(=O)C(=NOC(F)F)c1ccccc1COc1cc(C)ccc1C
9,185 to 187,COC(=O)c1ccc(OCC(N)=O)c([N+](=O)[O-])c1
10,69 to 70,CC(NC(=O)CCBr)c1ccccc1 (configuration not stated)
11,40 to 43,NCc1cccc(N)c1
12,109 to 110,Cc1ccnc(Cl)c1C#N
13,126 to 128,c1cc2c3c(cccc3c1)C(NOCCCCn1ccnc1)=N2
14,31,CCCCCC1=CCC(c2cc(F)cc(F)c2)C=C1 (configuration not stated)
15,134 to 135,CCOCCc1c(-c2ccccc2)nc(Cl)n2ncnc12
16,266 to 268,NC1=NC2=NN(c3ccco3)NC2=C2N=CN(Cc3ccc(F)cc3)N12
17,246,CC(C)n1cc(-c2nc(C(N)=O)c(N)nc2-c2ccc(Cl)cc2)ccc1=O
18,70 to 71,Cc1cc(-c2ccccc2)n2nccc2n1
19,104 to 105,COc1cccc(Cn2cc3c(-c4cccc(C(=O)NCCO)c4)cccc3n2)n1
20,208 to 210,O=C1C=C(c2ccc(Cl)c(Cl)c2)C(=O)N1Nc1ccccc1
21,90 to 91,Cc1ccccc1COC(C)(CO)CO
22,146 to 147,NNC(=O)c1cc2c(Oc3ccc(C(F)(F)F)cc3)cncc2s1
23,157 to 158,COC(=S)NC[C@H]1CN(c2ccc(-c3nc(Cn4cccn4)cs3)c(F)c2)C(=O)O1
24,192,CSc1nc2ccnn2c2ncccc12
25,110 to 112,CC(C)(CO)C(O)C(Oc1ccc(Cl)cc1)n1cncn1 (configuration not stated)
